# Assay results published in PubChem BioAssay (NCI).
#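 Step 1: Grow cells in 96-well plates. Step 2: Expose to compound for 48 hours at 5 concentrations. Step 3: Interpolate endpoints linearly; if unreached, use highest concentration. GI50: concentration for 50% inhibition of growth. TGI is the concentration that stops growth completely.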
# Tests used:
# Assay in all cases: growth of human tumour cells (NCI), 48 h
# HT29 colon = tested on: HT29 colon
# KM12 colon = tested on: KM12 colon
# SK-MEL-5 melanoma = tested on: SK-MEL-5 melanoma
# MALME-3M melanoma = tested on: MALME-3M melanoma
# UACC-257 melanoma = tested on: UACC-257 melanoma
# TK-10 renal = tested on: TK-10 renal
# SK-MEL-2 melanoma = tested on: SK-MEL-2 melanoma
# RPMI-8226 leukemia = tested on: RPMI-8226 leukemia
# BT-549 breast = tested on: BT-549 breast
# HOP-62 NSCLC = tested on: HOP-62 NSCLC
# MDA-MB-231 breast = tested on: MDA-MB-231 breast
# UACC-62 melanoma = tested on: UACC-62 melanoma
# SF-539 CNS = tested on: SF-539 CNS
# DU-145 prostate = tested on: DU-145 prostate
# HCT-15 colon = tested on: HCT-15 colon
# A498 renal = tested on: A498 renal
# HCC-2998 colon = tested on: HCC-2998 colon
# A549 NSCLC = tested on: A549 NSCLC
# M14 melanoma = tested on: M14 melanoma
# U251 CNS = tested on: U251 CNS
# OVCAR-5 ovarian = tested on: OVCAR-5 ovarian
# LOX IMVI melanoma = tested on: LOX IMVI melanoma
# NCI-H460 lung = tested on: NCI-H460 lung
# SK-MEL-28 melanoma = tested on: SK-MEL-28 melanoma
# NCI/ADR-RES ovarian = tested on: NCI/ADR-RES ovarian
# OVCAR-4 ovarian = tested on: OVCAR-4 ovarian
# SF-295 CNS = tested on: SF-295 CNS
# MCF7 breast = tested on: MCF7 breast
# RXF 393 renal = tested on: RXF 393 renal
# OVCAR-3 ovarian = tested on: OVCAR-3 ovarian
# CCRF-CEM leukemia = tested on: CCRF-CEM leukemia
# PC-3 prostate = tested on: PC-3 prostate
# EKVX NSCLC = tested on: EKVX NSCLC
# IGROV1 ovarian = tested on: IGROV1 ovarian
# MDA-MB-435 = tested on: MDA-MB-435
# SNB-75 CNS = tested on: SNB-75 CNS
# UO-31 renal = tested on: UO-31 renal
# SN12C renal = tested on: SN12C renal
# SNB-19 CNS = tested on: SNB-19 CNS
# HL-60(TB) leukemia = tested on: HL-60(TB) leukemia
# ACHN renal = tested on: ACHN renal
# K-562 leukemia = tested on: K-562 leukemia
# COLO 205 colon = tested on: COLO 205 colon
# 786-0 renal = tested on: 786-0 renal
# NCI-H226 lung = tested on: NCI-H226 lung
# T-47D breast = tested on: T-47D breast
# NCI-H522 lung = tested on: NCI-H522 lung
# CAKI-1 renal = tested on: CAKI-1 renal
# SK-OV-3 ovarian = tested on: SK-OV-3 ovarian
# SF-268 CNS = tested on: SF-268 CNS
# HOP-92 NSCLC = tested on: HOP-92 NSCLC
# HS 578T breast = tested on: HS 578T breast
# SW-620 colon = tested on: SW-620 colon
# HCT-116 colon = tested on: HCT-116 colon
# NCI-H23 lung = tested on: NCI-H23 lung
# OVCAR-8 ovarian = tested on: OVCAR-8 ovarian
# MOLT-4 leukemia = tested on: MOLT-4 leukemia
structure (smiles),measurement,setting,value
O=c1[nH]cnc2c(C3OC(CO)C(O)C3O)scc12 (configuration not stated),GI50,HT29 colon,> 100 µM
same,TGI,HT29 colon,> 100 µM
same,GI50,KM12 colon,> 100 µM
same,TGI,KM12 colon,> 100 µM
same,GI50,SK-MEL-5 melanoma,> 100 µM
same,TGI,SK-MEL-5 melanoma,> 100 µM
same,GI50,MALME-3M melanoma,13.8 µM
same,TGI,MALME-3M melanoma,> 100 µM
same,GI50,UACC-257 melanoma,> 100 µM
same,TGI,UACC-257 melanoma,> 100 µM
same,GI50,TK-10 renal,11.6 µM
same,TGI,TK-10 renal,> 100 µM
same,GI50,SK-MEL-2 melanoma,44.8 µM
same,TGI,SK-MEL-2 melanoma,> 100 µM
same,GI50,RPMI-8226 leukemia,26.9 µM
same,TGI,RPMI-8226 leukemia,> 100 µM
same,GI50,BT-549 breast,> 100 µM
same,TGI,BT-549 breast,> 100 µM
same,GI50,HOP-62 NSCLC,46.9 µM
same,TGI,HOP-62 NSCLC,> 100 µM
same,GI50,MDA-MB-231 breast,37.5 µM
same,TGI,MDA-MB-231 breast,> 100 µM
same,GI50,UACC-62 melanoma,> 100 µM
same,TGI,UACC-62 melanoma,> 100 µM
same,GI50,SF-539 CNS,> 100 µM
same,TGI,SF-539 CNS,> 100 µM
same,GI50,DU-145 prostate,5.47 µM
same,TGI,DU-145 prostate,> 100 µM
same,GI50,HCT-15 colon,60 µM
same,TGI,HCT-15 colon,> 100 µM
same,GI50,A498 renal,> 100 µM
same,TGI,A498 renal,> 100 µM
same,GI50,HCC-2998 colon,32.3 µM
same,TGI,HCC-2998 colon,> 100 µM
same,GI50,A549 NSCLC,> 100 µM
same,TGI,A549 NSCLC,> 100 µM
same,GI50,M14 melanoma,56.5 µM
same,TGI,M14 melanoma,> 100 µM
same,GI50,U251 CNS,> 100 µM
same,TGI,U251 CNS,> 100 µM
same,GI50,OVCAR-5 ovarian,> 100 µM
same,TGI,OVCAR-5 ovarian,> 100 µM
same,GI50,LOX IMVI melanoma,43.9 µM
same,TGI,LOX IMVI melanoma,> 100 µM
same,GI50,NCI-H460 lung,74 µM
same,TGI,NCI-H460 lung,> 100 µM
same,GI50,SK-MEL-28 melanoma,> 100 µM
same,TGI,SK-MEL-28 melanoma,> 100 µM
same,GI50,NCI/ADR-RES ovarian,44.5 µM
same,TGI,NCI/ADR-RES ovarian,> 100 µM
same,GI50,OVCAR-4 ovarian,> 100 µM
same,TGI,OVCAR-4 ovarian,> 100 µM
same,GI50,SF-295 CNS,> 100 µM
same,TGI,SF-295 CNS,> 100 µM
same,GI50,MCF7 breast,50.1 µM
same,TGI,MCF7 breast,> 100 µM
same,GI50,RXF 393 renal,> 100 µM
same,TGI,RXF 393 renal,> 100 µM
same,GI50,OVCAR-3 ovarian,> 100 µM
same,TGI,OVCAR-3 ovarian,> 100 µM
same,GI50,CCRF-CEM leukemia,0.271 µM
same,TGI,CCRF-CEM leukemia,1.16 µM
same,GI50,PC-3 prostate,37.9 µM
same,TGI,PC-3 prostate,> 100 µM
same,GI50,EKVX NSCLC,> 100 µM
same,TGI,EKVX NSCLC,> 100 µM
same,GI50,IGROV1 ovarian,73.5 µM
same,TGI,IGROV1 ovarian,> 100 µM
same,GI50,MDA-MB-435,> 100 µM
same,TGI,MDA-MB-435,> 100 µM
same,GI50,SNB-75 CNS,> 100 µM
same,TGI,SNB-75 CNS,> 100 µM
same,GI50,UO-31 renal,51.4 µM
same,TGI,UO-31 renal,> 100 µM
same,GI50,SN12C renal,> 100 µM
same,TGI,SN12C renal,> 100 µM
same,GI50,SNB-19 CNS,> 100 µM
same,TGI,SNB-19 CNS,> 100 µM
same,GI50,HL-60(TB) leukemia,19.6 µM
same,TGI,HL-60(TB) leukemia,> 100 µM
same,GI50,ACHN renal,49.1 µM
same,TGI,ACHN renal,> 100 µM
same,GI50,K-562 leukemia,31.5 µM
same,TGI,K-562 leukemia,> 100 µM
same,GI50,COLO 205 colon,> 100 µM
same,TGI,COLO 205 colon,> 100 µM
same,GI50,786-0 renal,> 100 µM
same,TGI,786-0 renal,> 100 µM
same,GI50,NCI-H226 lung,> 100 µM
same,TGI,NCI-H226 lung,> 100 µM
same,GI50,T-47D breast,> 100 µM
same,TGI,T-47D breast,> 100 µM
same,GI50,NCI-H522 lung,> 100 µM
same,TGI,NCI-H522 lung,> 100 µM
same,GI50,CAKI-1 renal,77.9 µM
same,TGI,CAKI-1 renal,> 100 µM
same,GI50,SK-OV-3 ovarian,> 100 µM
same,TGI,SK-OV-3 ovarian,> 100 µM
same,GI50,SF-268 CNS,> 100 µM
same,TGI,SF-268 CNS,> 100 µM
same,GI50,HOP-92 NSCLC,5.03 µM
same,TGI,HOP-92 NSCLC,> 100 µM
same,GI50,HS 578T breast,> 100 µM
same,TGI,HS 578T breast,> 100 µM
same,GI50,SW-620 colon,99.9 µM
same,TGI,SW-620 colon,> 100 µM
same,GI50,HCT-116 colon,> 100 µM
same,TGI,HCT-116 colon,> 100 µM
same,GI50,NCI-H23 lung,> 100 µM
same,TGI,NCI-H23 lung,> 100 µM
same,GI50,OVCAR-8 ovarian,54.8 µM
same,TGI,OVCAR-8 ovarian,> 100 µM
Cc1ccc(-n2cnc3c(N/N=C4\SCC(=O)N4c4ccccc4)ncnc32)cc1,TGI,HT29 colon,15 µM
same,TGI,KM12 colon,7.88 µM
same,TGI,SK-MEL-5 melanoma,16 µM
same,TGI,MALME-3M melanoma,16.3 µM
same,TGI,UACC-257 melanoma,18.3 µM
same,TGI,TK-10 renal,14.3 µM
same,TGI,SK-MEL-2 melanoma,8.42 µM
same,TGI,BT-549 breast,14.1 µM
same,TGI,HOP-62 NSCLC,28.9 µM
same,TGI,MDA-MB-231 breast,10.5 µM
same,TGI,UACC-62 melanoma,17.2 µM
same,TGI,SF-539 CNS,3.71 µM
same,TGI,DU-145 prostate,17.5 µM
same,TGI,HCT-15 colon,11.5 µM
same,TGI,A498 renal,27.2 µM
same,TGI,A549 NSCLC,29.6 µM
same,TGI,M14 melanoma,13.4 µM
same,TGI,U251 CNS,16.2 µM
same,TGI,OVCAR-5 ovarian,25.4 µM
same,TGI,LOX IMVI melanoma,10.3 µM
same,TGI,NCI-H460 lung,13.2 µM
same,TGI,MOLT-4 leukemia,5.48 µM
same,TGI,SK-MEL-28 melanoma,11.4 µM
same,TGI,NCI/ADR-RES ovarian,53.8 µM
same,TGI,OVCAR-4 ovarian,21.2 µM
same,TGI,SF-295 CNS,27.6 µM
same,TGI,RXF 393 renal,5.8 µM
same,TGI,OVCAR-3 ovarian,11.5 µM
same,TGI,CCRF-CEM leukemia,4.93 µM
same,TGI,PC-3 prostate,17.8 µM
same,TGI,EKVX NSCLC,29 µM
same,TGI,IGROV1 ovarian,15 µM
same,TGI,MDA-MB-435,13.3 µM
same,TGI,UO-31 renal,17.9 µM
same,TGI,SN12C renal,11.7 µM
same,TGI,SNB-19 CNS,24.4 µM
same,TGI,HL-60(TB) leukemia,4.29 µM
same,TGI,ACHN renal,18.6 µM
same,TGI,K-562 leukemia,> 100 µM
same,TGI,COLO 205 colon,17.1 µM
same,TGI,786-0 renal,12.1 µM
same,TGI,NCI-H226 lung,20.4 µM
same,TGI,T-47D breast,18.7 µM
same,TGI,NCI-H522 lung,7.28 µM
same,TGI,CAKI-1 renal,18.9 µM
same,TGI,SK-OV-3 ovarian,27.7 µM
same,TGI,SF-268 CNS,19.7 µM
same,TGI,HOP-92 NSCLC,11.3 µM
same,TGI,HS 578T breast,26.6 µM
same,TGI,SW-620 colon,16.5 µM
same,TGI,HCT-116 colon,13 µM
same,TGI,NCI-H23 lung,14 µM
same,TGI,OVCAR-8 ovarian,11.8 µM
N=C(N)c1ccc(-c2ccc(-c3ccc(Cl)cc3)o2)nc1,GI50,CAKI-1 renal,1.42 µM
same,TGI,CAKI-1 renal,2.74 µM
